Measured values as given in the supplement of paper PMC10307832.

How the values were obtained:
Assay in all cases: relative viability (nuclei count vs DMSO), 5 days (fraction); higher = more cells survive
CAP-232 + Trametinib = compound: C[C@H]([C@@H](C(=O)N)NC(=O)[C@@H]1CSSC[C@@H](C(=O)N[C@H](C(=O)N[C@@H](C(=O)N[C@H](C(=O)N1)CCCCN)CC2=CNC3=CC=CC=C32)CC4=CC=C(C=C4)O)NC(=O)[C@@H](CC5=CC=CC=C5)N)O [CAP-232] + CC(=O)Nc1cccc(-n2c(=O)n(C3CC3)c(=O)c3c(Nc4ccc(I)cc4F)n(C)c(=O)c(C)c32)c1 [Trametinib] (partner 0.02 µM)
In short: (§1)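 Dosing by pin tool came one day after lung cancer cell lines were seeded in 1536-well plates, using either one drug or a fixed anchor-drug dose plus five library-drug doses (not always all listed) in √10 steps. After 5 days, nuclei were counted on 4× images. Relative viability is treated-well nuclei count divided by vehicle-well nuclei count, and values are medians of duplicate plates.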

CAP-232 + AZD7762 = compound: C[C@H]([C@@H](C(=O)N)NC(=O)[C@@H]1CSSC[C@@H](C(=O)N[C@H](C(=O)N[C@@H](C(=O)N[C@H](C(=O)N1)CCCCN)CC2=CNC3=CC=CC=C32)CC4=CC=C(C=C4)O)NC(=O)[C@@H](CC5=CC=CC=C5)N)O [CAP-232] + NC(=O)Nc1cc(-c2cccc(F)c2)sc1C(=O)N[C@H]1CCCNC1 [AZD7762] (partner 0.2 µM)
In short: as §1

CAP-232 + Olaparib = compound: C[C@H]([C@@H](C(=O)N)NC(=O)[C@@H]1CSSC[C@@H](C(=O)N[C@H](C(=O)N[C@@H](C(=O)N[C@H](C(=O)N1)CCCCN)CC2=CNC3=CC=CC=C32)CC4=CC=C(C=C4)O)NC(=O)[C@@H](CC5=CC=CC=C5)N)O [CAP-232] + O=C(c1cc(Cc2n[nH]c(=O)c3ccccc23)ccc1F)N1CCN(C(=O)C2CC2)CC1 [Olaparib] (partner 8 µM)
In short: as §1

CAP-232 + Pictilisib = compound: C[C@H]([C@@H](C(=O)N)NC(=O)[C@@H]1CSSC[C@@H](C(=O)N[C@H](C(=O)N[C@@H](C(=O)N[C@H](C(=O)N1)CCCCN)CC2=CNC3=CC=CC=C32)CC4=CC=C(C=C4)O)NC(=O)[C@@H](CC5=CC=CC=C5)N)O [CAP-232] + CS(=O)(=O)N1CCN(Cc2cc3nc(-c4cccc5[nH]ncc45)nc(N4CCOCC4)c3s2)CC1 [Pictilisib] (partner 1 µM)
In short: as §1

CAP-232 + Crizotinib = compound: C[C@H]([C@@H](C(=O)N)NC(=O)[C@@H]1CSSC[C@@H](C(=O)N[C@H](C(=O)N[C@@H](C(=O)N[C@H](C(=O)N1)CCCCN)CC2=CNC3=CC=CC=C32)CC4=CC=C(C=C4)O)NC(=O)[C@@H](CC5=CC=CC=C5)N)O [CAP-232] + C[C@@H](Oc1cc(-c2cnn(C3CCNCC3)c2)cnc1N)c1c(Cl)ccc(F)c1Cl [Crizotinib] (partner 1 µM)
In short: as §1

| Cell Line | relative viability (CAP-232 + Trametinib; first compound 0.4 µM) | relative viability (CAP-232 + Trametinib; first compound 1.265 µM) | relative viability (CAP-232 + Trametinib; first compound 4 µM) | relative viability (CAP-232 + Trametinib; first compound 12.65 µM) | relative viability (CAP-232 + AZD7762; first compound 0.4 µM) | relative viability (CAP-232 + AZD7762; first compound 1.265 µM) | relative viability (CAP-232 + AZD7762; first compound 4 µM) | relative viability (CAP-232 + AZD7762; first compound 12.65 µM) | relative viability (CAP-232 + Olaparib; first compound 0.4 µM) | relative viability (CAP-232 + Olaparib; first compound 1.265 µM) | relative viability (CAP-232 + Olaparib; first compound 4 µM) | relative viability (CAP-232 + Olaparib; first compound 12.65 µM) | relative viability (CAP-232 + Pictilisib; first compound 0.4 µM) | relative viability (CAP-232 + Pictilisib; first compound 1.265 µM) | relative viability (CAP-232 + Pictilisib; first compound 4 µM) | relative viability (CAP-232 + Pictilisib; first compound 12.65 µM) | relative viability (CAP-232 + Crizotinib; first compound 0.4 µM) | relative viability (CAP-232 + Crizotinib; first compound 1.265 µM) | relative viability (CAP-232 + Crizotinib; first compound 4 µM) | relative viability (CAP-232 + Crizotinib; first compound 12.65 µM) |
| --- | --- | --- | --- | --- | --- | --- | --- | --- | --- | --- | --- | --- | --- | --- | --- | --- | --- | --- | --- | --- |
| NCI-H2342 | 0.788 | 0.746 | 0.766 | 0.787 | 0.478 | 0.539 | 0.586 | 0.574 | 0.447 | 0.441 | 0.46 | 0.396 | – | – | – | – | – | – | – | – |
| SK-MES-1 | 0.543 | 0.549 | 0.541 | 0.524 | – | – | – | – | 0.747 | 0.718 | 0.762 | 0.607 | 0.335 | 0.379 | 0.32 | 0.323 | 0.965 | 0.909 | 0.926 | 0.931 |
| SK-LU-1 | 0.45 | 0.477 | 0.717 | 0.492 | – | – | – | – | 0.388 | 0.44 | 0.412 | 0.408 | 0.605 | 0.547 | 0.651 | 0.462 | 0.689 | 0.988 | 0.781 | 0.912 |
| ABC-1 | – | – | – | – | 0.883 | 0.541 | 0.803 | 0.692 | 0.778 | – | 0.665 | 0.368 | 0.616 | 0.878 | 0.745 | 0.411 | 1.01 | 1.17 | 1.08 | 0.903 |
| COR-L 105 | 0.371 | 0.414 | 0.395 | 0.377 | – | – | – | – | 0.733 | 0.61 | 0.712 | 0.571 | 0.346 | 0.43 | 0.37 | 0.31 | 0.863 | 0.808 | 0.804 | 0.581 |
| NCI-H2009 | 0.237 | 0.251 | 0.247 | 0.301 | – | – | – | – | 0.799 | 0.684 | 0.74 | 0.52 | 0.711 | 0.728 | 0.88 | 0.478 | 1.11 | 1.01 | 1.05 | 1.09 |
| NCI-H1703 | – | – | – | – | 0.124 | – | 0.143 | 0.146 | 0.388 | 0.468 | 0.315 | 0.388 | 0.245 | 0.224 | 0.269 | 0.261 | 0.788 | 0.844 | 0.74 | 0.695 |
| NCI-H2023 | 0.656 | 0.555 | 0.48 | 0.205 | – | – | – | – | 0.485 | 0.498 | 0.497 | 0.326 | 0.253 | 0.231 | 0.271 | 0.133 | 0.837 | 0.548 | 0.693 | 0.292 |
| NCI-H1650 | 0.631 | 0.557 | 0.54 | 0.215 | – | – | – | – | 1.04 | 0.799 | 0.836 | 0.493 | 0.636 | 0.578 | 0.535 | 0.154 | 0.98 | 0.963 | 0.966 | 0.627 |
| NCI-H1395 | 1.17 | – | 1.06 | 1.1 | 0.511 | – | 0.423 | 0.224 | 0.436 | – | 0.462 | 0.264 | 0.593 | 0.433 | 0.602 | 0.576 | – | – | – | – |
| A549 | – | – | – | – | – | – | – | – | 0.211 | 0.292 | 0.396 | 0.326 | 0.591 | 0.472 | 0.563 | 0.203 | 0.86 | 0.734 | 0.871 | 0.251 |
| NCI-H1793 | 0.342 | 0.396 | 0.356 | 0.493 | 0.437 | 0.618 | 0.518 | 0.524 | 0.921 | 0.922 | 1.04 | 0.877 | 0.334 | 0.284 | 0.31 | 0.283 | – | – | – | – |
| NCI-H522 | 0.772 | 0.856 | 0.607 | 0.726 | 0.876 | 1.08 | 0.926 | 1.04 | 0.78 | 0.587 | 0.638 | 0.789 | – | – | – | – | – | – | – | – |
| NCI-H520 | 0.559 | 0.637 | 0.799 | 0.521 | – | – | – | – | 0.349 | 0.304 | 0.321 | 0.303 | 0.379 | 0.315 | 0.314 | 0.25 | 0.822 | 0.66 | 0.888 | 0.56 |
| SW 1573 | 0.503 | 0.54 | 0.643 | 0.191 | – | – | – | – | 0.395 | 0.416 | 0.469 | 0.356 | 0.437 | 0.587 | 0.54 | 0.395 | 0.785 | 0.803 | 0.642 | 0.81 |
| UMC-11 | 0.65 | 0.546 | 0.719 | 0.456 | – | – | – | – | 0.358 | 0.339 | 0.374 | 0.248 | 0.775 | 0.796 | 1 | 0.876 | 0.585 | 0.786 | 0.681 | 0.639 |
| SW 900 | 0.75 | 0.93 | 0.677 | 0.767 | 0.666 | 0.604 | 0.515 | 0.547 | 0.766 | 0.883 | 0.698 | 0.99 | – | – | – | – | – | – | – | – |
| NCI-H2228 | 0.473 | 0.523 | 0.715 | 0.414 | – | – | – | – | 0.766 | 0.73 | 0.92 | 0.361 | 0.381 | 0.768 | 0.369 | 0.269 | 0.637 | 0.407 | 0.526 | 0.461 |
| COR-L23 | 0.455 | 0.597 | 0.604 | 0.281 | – | – | – | – | 0.43 | 0.403 | 0.404 | 0.279 | 0.653 | 0.734 | 0.784 | 0.579 | 0.665 | 0.793 | 0.72 | 0.619 |
